From the supplement of paper PMC11061612 come the findings set out here.

Common to all, as to assay: Bliss excess, mean over the matrix (fraction); higher = more synergy
In one test the test system is GAMG (Glioblastoma). The method, boiled down: (§1)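 After 24 hours at 37°C and 5% CO2 in 1536-well plates, cells in DMEM/F12 or RPMI plus 10% FBS received two-drug dose matrices for 72 hours. Viability came from CellTiter-Glo 2.0 luminescence and was scaled as inhibition, anchored at 0 by vehicle wells and at 1 by blank wells. Combination Emax is taken as the second-highest inhibition in the matrix, and Bliss excess as the observed combination effect less EA + EB − EA·EB, with EA and EB the single-agent effects.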

Test [1] deals with KMRC-20 (Kidney Carcinoma). The method in brief: as §1
The test system of test [2] is FTC-133 (Thyroid Gland Carcinoma). The method in brief: as §1
Test [3] has as its system LNZTA3WT4 (Low Grade Glioma). The method in brief: as §1
The test system of test [4] is HeLa (Cervical Carcinoma). The method in brief: as §1
Test [5] deals with SAS (Oral Cavity Carcinoma). The method, boiled down:
as §1

Test [6] has as its system NCI-H209 (Small Cell Lung Carcinoma). The method in brief:
as §1

For test [7], the system named is SNU-16 (Gastric Carcinoma). The method, boiled down:
as §1

Test [8] concerns NUGC-4 (Gastric Carcinoma). The method in brief: as §1
The subject of test [9] is SNU-449 (Hepatocellular Carcinoma). The method in brief:
as §1

Test [10] concerns BE-13 (T-Lymphoblastic Leukemia). The method in brief:
as §1

Test [11] concerns BFTC-909 (Kidney Carcinoma). The method, boiled down: as §1
Test [12] relates to HH (T-Cell Non-Hodgkin's Lymphoma). The method, boiled down: as §1
Test [13] has as its system SW1573 (Lung Adenocarcinoma). The method, boiled down:
as §1

The test system of test [14] is L-428 (Hodgkin's Lymphoma). The method, boiled down:
as §1

For test [15], the system named is OV-56 (Ovarian Carcinoma). The method in brief: as §1
The next test deals with LOXIMVI (Melanoma). The method in brief:
as §1

The subject of another test is MPP-89 (Mesothelioma). The method in brief: as §1
Test [16] relates to SW1710 (Bladder Carcinoma). The method in brief: as §1
Test [17] deals with HuCCT1 (Biliary Tract Carcinoma). The method, boiled down: as §1

Consider `NC1(C(=O)N[C@@H](CCO)c2ccc(Cl)cc2)CCN(c2ncnc3[nH]ccc23)CC1` [Capivasertib] + CC(C)n1c(=O)n(C)c2cnc3cc(F)c(-c4ccc(OCCCN5CCCCC5)nc4)cc3c21 [AZD1390] (first compound max 10 µM, 7x7, partner max 0.3 µM), for which the Bliss excess was -0.0455 in the test with GAMG (Glioblastoma); -0.0651 in test [1]; -0.0486 in test [2]; -0.0189 in [3]; -0.0537 in test [4]; -0.036 in test [5]. For the same compound, the Bliss excess in test [6] is -0.037; in test [7], -0.0034; in [8], -0.0524; in [9] it was -0.038; in test [10], -0.0455; in [11], -0.013. In addition, the Bliss excess is -0.0327 in [12]; -0.0724 in [13]; -0.0352 in test [14]; -0.044 in test [15]; -0.0063 in the test with LOXIMVI (Melanoma); -0.0069 in the test with MPP-89 (Mesothelioma). Also, the Bliss excess is -0.0482 in test [16] and -0.0447 in [17].
For `Cc1c2c(nn1C)CSCc1cc(n(C)n1)CSc1cc(c3ccccc3c1)OCCCc1c(C(=O)O)n(C)c3c-2c(Cl)ccc13` [AZD5991] + C[C@@H](Nc1cc(F)cc(F)c1)c1cc(C(=O)N(C)C)cc2c(=O)cc(N3CCOCC3)oc12 [AZD8186] (first compound max 1 µM, 7x7, partner max 3 µM), the Bliss excess was -0.0458 with GAMG (Glioblastoma); 0.0456 in test [1]; -0.0065 in test [2]; 0.0055 in test [3]; 0.0387 in test [4]; 0.0062 in test [5]. In addition, the Bliss excess in test [6] is -0.0154; in [7], 0.0087; in test [8], -0.0056; in test [9], -0.078; in test [10], -0.109; in test [11], 0.0188. The Bliss excess in [12] is 0.105; in [13] it was -0.0565; in test [14], -0.0085; in test [15], 0.017; in the test on LOXIMVI (Melanoma), -0.0227; with MPP-89 (Mesothelioma), 0.0083. Further, the results for the Bliss excess in test [16] and in test [17] were -0.0083 and 0.021, respectively.
With `CN(CCO)CC[C@H](CSc1ccccc1)Nc1ccc(S(=O)(=O)NC(=O)c2ccc(N3CCC([C@@H](O)c4ccccc4-c4ccc(Cl)cc4)CC3)cc2)cc1S(=O)(=O)C(F)(F)F` [AZD4320] + C1CN(CCC1(C(=O)N[C@@H](CCO)C2=CC=C(C=C2)Cl)N)C3=NC=NC4=C3C=CN4 [Capivasertib] (first compound max 1 µM, 7x7, partner max 3 µM), the Bliss excess in the test with GAMG (Glioblastoma) was -0.0661; in test [1], -0.0546; in test [2] it was -0.0459; in [3], -0.0176; in test [4] it was -0.0377; in test [5], -0.0369. Also, the Bliss excess is -0.0057 in test [6]; 0.0015 in [7]; -0.0706 in test [8]; -0.0742 in test [9]; -0.0175 in test [10]; -0.0955 in test [11]. In addition, the Bliss excess in test [12] is 0.0193; in test [13], -0.0614; in test [14], -0.0146; in [15], -0.0243; in the test with LOXIMVI (Melanoma), -0.0189; in the test with MPP-89 (Mesothelioma), -0.0234. The Bliss excess in test [16] is -0.034; in [17], -0.0536.
Consider `CS(=O)(=O)CCNCc1ccc(-c2ccc3ncnc(Nc4ccc(OCc5cccc(F)c5)c(Cl)c4)c3c2)o1` [Lapatinib] + C[C@@H](Oc1cc(-c2cnn(C3CCNCC3)c2)cnc1N)c1c(Cl)ccc(F)c1Cl [Crizotinib] (first compound max 10 µM, 7x7, partner max 10 µM), for which the Bliss excess with GAMG (Glioblastoma) is -0.0277; in test [1] it was -0.116; in test [2], -0.0012; in test [3] it was -0.0665; in [4], -0.0031; in test [5], -0.0346. The Bliss excess in test [6] was -0.003; in [7], -0.0151; in test [8], 0.0496; in [9] it was -0.0453; in test [10], -0.0235; in test [11], -0.0651. Besides, the Bliss excess in test [12] is -0.0405; in test [13], -0.0788; in test [14], -0.0032; in test [15], 0.0056; in the test on LOXIMVI (Melanoma), -0.0505; in the test with MPP-89 (Mesothelioma), -0.0762. Besides, the Bliss excess was -0.078 in test [16] and -0.068 in test [17].
Turning to `CC1(C)CCC(CN2CCN(c3ccc(C(=O)NS(=O)(=O)c4ccc(NCC5CCOCC5)c([N+](=O)[O-])c4)c(Oc4cnc5[nH]ccc5c4)c3)CC2)=C(c2ccc(Cl)cc2)C1` [Venetoclax] + Cc1cc2ncnn2cc1Nc1ncc2c(n1)n(C1CCOCC1)c(=O)n2C [AZD7648] (first compound max 1 µM, 7x7, partner max 10 µM), the Bliss excess was -0.024 in the test with GAMG (Glioblastoma); 0.0019 in test [1]; -0.0156 in test [2]; -0.0353 in test [3]; -0.0354 in test [4]; -0.0055 in [5]. In addition, the Bliss excess in test [6] was 0.0416; in [7], -0.0396; in test [8], -0.0714; in test [9], -0.0699; in test [10] it was -0.0896; in [11], 0.0017. In addition, the Bliss excess was -0.0061 in test [12]; -0.0609 in [13]; -0.0548 in test [14]; 0.0016 in [15]; -0.0277 in the test with LOXIMVI (Melanoma); 0.0173 with MPP-89 (Mesothelioma). The Bliss excess in [16] is -0.0217; in test [17] it was -0.0609.
For the compound `CN(C)CCCOc1ccc(-c2ccc3ncc4c(c3c2)n(C2CCOCC2)c(=O)n4C)cn1` [AZD0156] + CCN(CCO)CCCOc1ccc2c(Nc3cc(CC(=O)Nc4cccc(F)c4)[nH]n3)ncnc2c1 [AZD2811] (first compound max 1 µM, 7x7, partner max 1 µM), the Bliss excess with GAMG (Glioblastoma) was -0.0244; in test [1], -0.0499; in test [2], -0.0214; in test [3] it was -0.0162; in [4], -0.0136; in test [5] it was -0.0391. Further, the Bliss excess in [6] is 0.0922; in [7] it was 0.0244; in test [8], -0.0387; in test [9], -0.0656; in test [10], -0.0908; in test [11], -0.0015. The Bliss excess is -0.0412 in test [12]; -0.0205 in test [13]; 0.0314 in [14]; -0.0176 in test [15]; -0.0125 in the test with LOXIMVI (Melanoma); -0.0402 with MPP-89 (Mesothelioma). Further, the Bliss excess in test [16] was -0.0288; in test [17], -0.0274.
